We go through 11 molecules from patent US12263248B2, “Compounds and compositions for intracellular delivery of therapeutic agents” (ModernaTX, Inc., priority 2018, dated 2025).

Marks after values point to notes of the source that are not given here.

The nature of data set [1]: Encapsulation efficiency of RNA (QUANT-IT RIBOGREEN RNA assay). Format: physicochemical. The settings on record: for EE (%): Table 1A; for % EE: compositions for subcutaneous administration. An outline of the steps:
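RiboGreen fluorescence (ex ~480, em ~520 nm) compared between intact samples and Triton X-100-lysed samples after 15 min at 37 °C in TE buffer, pH 7.5. Percent free RNA is the blank-corrected intact/disrupted ratio.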

For data set [2], the system named is luciferase (Luc) mRNA. Nature of the data set: Luc expression, whole body bioluminescence after intravenous administration to mice. Format: in vivo. The settings on record: for Novel lipid/MC3 ratio, 6 hr. timepoint, i.v. / Novel lipid/MC3 expression ratio, 6 hr. time point, i.v.: luciferase; for Novel lipid/MC3 ratio, 6 hr. timepoint, i.v.: relative to MC3, Table 3G; for Novel lipid/MC3 expression ratio, 6 hr. time point, i.v.: relative to MC3 formulation; for Total Flux 3 hours / Total Flux 6 hours / Total Flux 24 hours: Luc mRNA; for Fold increase in total body Luc Flux relative to MC3 at 6 h: Table 3A, i.v. administration. An outline of the steps: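 Bioluminescence, read as region-of-interest total flux at 3, 6 and 24 h, followed a single 0.5 mg/kg intravenous dose of Luc mRNA-loaded nanoparticles in mice (n=6). Luciferin substrate (200 μL, 15 mg/mL in PBS) was injected intraperitoneally into CD-1 mice 15 minutes ahead of each imaging point.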

The test system of data set [3] is luciferase mRNA. Description: Luciferase expression after subcutaneous administration to mice. To be noted: for Novel lipid/MC3 expression ratio, s.c. Luc 0.5 mpk (AUC) / Novel lipid/MC3 expression ratio, 6 hr. time point, s.c. Luc 0.5 mpk / Novel lipid/MC3 expression ratio, 6 hr. time point, s.c. Luc 0.05 mpk: relative to MC3; for Novel lipid/MC3 expression ratio, s.c. Luc 0.5 mpk (AUC) / Lipid/MC3 AUC ratio / AUC (luciferase expression) / Novel lipid/MC3 expression ratio, 6 hr. time point, s.c. Luc 0.5 mpk: 0.5 mpk; for Lipid/MC3 AUC ratio: luciferase; for AUC (luciferase expression): whole body BLI; for Novel lipid/MC3 ratio, s.c. Luc 6 hr.: relative to MC3, Table 3G. Format: in vivo, female CD-1 mice. As to the method:
The effect of the lipids of the disclosure on protein expression upon subcutaneous administration was studied. Formulations containing lipids of the disclosure and an mRNA expressing luciferase or hEPO were administered subcutaneously to female CD-1 mice at 0.5 mpk. Expression levels were obtained via whole body luminescent imaging (BLI) at 3, 6 and 24 hours after injection and expression levels in liver, spleen and at the injection site were evaluated ex vivo after 24 hours. […] See also Tables 35 and 36, and FIGS. 19 and 27.
Table 35 summarizes the luciferase expression levels using various nanoparticle compositions of the disclosure, and the luciferase expression levels using various nanoparticle compositions of the disclosure as compared to the luciferase expression level using an MC3 formulation after subcutaneous administration, as described above.

As to `CCCCCCCCC(CC)OC(=O)CCCCCN(CCO)CCCCCCCC(=O)OC(CCCCCCCC)CCCCCCCC` (centres unmarked) [Compound 75, Heptadecan-9-yl 8-((2-hydroxyethyl)(6-oxo-6-(undecan-3-yloxy)hexyl)amino)octanoate], the “EE (%)” value in data set [1] is recorded as 92.3%. For the same molecule, the “% EE” value in data set [1] (Table 1C) was determined as 94.9%. In data set [2] (intravenous), the “Novel lipid/MC3 ratio, 6 hr. timepoint, i.v.” value (“Novel lipid/MC3 ratio … i.v.” below) turned out to be 3.29 and the “Novel lipid/MC3 expression ratio, 6 hr. time point, i.v.” value (“Novel lipid/MC3 expression ratio … i.v.” below) worked out at 3.29. In data set [2] (mice, i.v., 0.5 mg/kg), the “Total Flux 3 hours” value came out at 3.51E+10, the “Total Flux 6 hours” value came to 8.80E+10 and the “Total Flux 24 hours” value worked out at 2.13E+09. In data set [3], the “Novel lipid/MC3 expression ratio, s.c. Luc 0.5 mpk (AUC)” value was “(AUC: 3.05)”; the “Lipid/MC3 AUC ratio” value came to 3.05; the “AUC (luciferase expression)” value is reported as 5.2262E+10 (p/s) * h; the “Novel lipid/MC3 ratio, s.c. Luc 6 hr.” value is 3.08.
On to `CCCCCCCCCOC(=O)CCCCCCCN(CCO)CCCCCCCCCC(=O)OC(CCCCCCCC)CCCCCCCC` [Compound 23, Heptadecan-9-yl 10-((2-hydroxyethyl)(8-(nonyloxy)-8-oxooctyl)amino) decanoate], for which, in data set [1], the “EE (%)” value came to 92.68%. Moreover, the “% EE” value in data set [1] (Table 1E) came out at 98%. For the same molecule, in data set [2] (mice, i.v., 0.5 mg/kg), the “Total Flux 3 hours” value is 1.83E+09, the “Total Flux 6 hours” value is 1.15E+09 and the “Total Flux 24 hours” value amounted to 3.71E+08. Moreover, the “Novel lipid/MC3 expression ratio, 6 hr. time point, s.c. Luc 0.5 mpk” value in data set [3] turned out to be 1.02.
Take `CCCCCCCCCOC(=O)CCCCCCCN(CCCCCCCC(=O)OC(CCCCCCCC)CCCCCCCC)CCCNC(=S)NC` [Compound 113, Heptadecan-9-yl 8-((3-(3-methylthioureido)propyl)(8-(nonyloxy)-8-oxooctyl)amino)octanoate]: the “EE (%)” value in data set [1] was determined as 96.92%. The “% EE” value in data set [1] (Table 1C) came to 99.6%. Besides, in data set [2] (mice, i.v., 0.5 mg/kg), the “Total Flux 3 hours” value amounted to 5.16E+09, the “Total Flux 6 hours” value came out at 8.09E+09 and the “Total Flux 24 hours” value is 1.30E+08. In addition, in data set [3], the “Novel lipid/MC3 expression ratio, s.c. Luc 0.5 mpk (AUC)” value is reported as “(AUC: 4.30)”; the “Lipid/MC3 AUC ratio” value turned out to be 4.30; the “AUC (luciferase expression)” value is listed as 7.3721E+10 (p/s) * h; the “Novel lipid/MC3 ratio, s.c. Luc 6 hr.” value worked out at 4.53.
`CCCCCC/C=C\COC(=O)CCCCCCCN(CCO)CCCCCCCC(=O)OC(CCCCCCCC)CCCCCCCC` [Compound 24, Heptadecan-9-yl (Z)-8_((2-hydroxyethyl) (8-(non-2-en-1-yloxy)-8-oxooctyl)amino)octanoate]: in data set [1], the “EE (%)” value was 97.16%. The “% EE” value in data set [1] (Table 1C) is reported as 90.5%. Also, the “Fold increase in total body Luc Flux relative to MC3 at 6 h” value in data set [2] stood at 2.67. Besides, in data set [2] (intravenous), the “Novel lipid/MC3 ratio … i.v.” value stood at 2.67 and the “Novel lipid/MC3 expression ratio … i.v.” value is given as 2.67. For the same molecule, in data set [2] (mice, i.v., 0.5 mg/kg), the “Total Flux 3 hours” value worked out at 1.72E+10, the “Total Flux 6 hours” value amounted to 2.25E+10 and the “Total Flux 24 hours” value is given as 1.83E+09. In data set [3], the “Novel lipid/MC3 expression ratio, s.c. Luc 0.5 mpk (AUC)” value is listed as “(AUC: 5.21)”; the “Lipid/MC3 AUC ratio” value came to 5.21; the “AUC (luciferase expression)” value is listed as 8.9281E+10 (p/s) * h; the “Novel lipid/MC3 ratio, s.c. Luc 6 hr.” value was 5.79.
Regarding `CCCCCCCCC(CC)OC(=O)CCCN(CCO)CCCCCCCC(=O)OC(CCCCCCCC)CCCCCCCC` (centres unmarked) [Compound 72, Heptadecan-9-yl 8-((2-hydroxyethyl)(4-oxo-4-(undecan-3-yloxy)butyl)amino)octanoate], the “EE (%)” value in data set [1] came to 94.69%. Further, the “% EE” value in data set [1] (Table 1C) turned out to be 94.9%. Also, in data set [2] (intravenous), the “Novel lipid/MC3 ratio … i.v.” value came out at 1.52 and the “Novel lipid/MC3 expression ratio … i.v.” value turned out to be 1.52. Moreover, in data set [2] (mice, i.v., 0.5 mg/kg), the “Total Flux 3 hours” value is recorded as 1.73E+10, the “Total Flux 6 hours” value was determined as 4.07E+10 and the “Total Flux 24 hours” value was 7.12E+08. Besides, in data set [3], the “Novel lipid/MC3 expression ratio, s.c. Luc 0.5 mpk (AUC)” value is on record as “(AUC: 2.01)”; the “Lipid/MC3 AUC ratio” value is 2.01; the “AUC (luciferase expression)” value is 3.4417E+10 (p/s) * h; the “Novel lipid/MC3 ratio, s.c. Luc 6 hr.” value was 2.18.
Regarding `CCCCCCCCCOC(=O)CCCCCCCN(CCCCO)CCCCCCCC(=O)OC(CCCCCCCC)CCCCCCCC` [Compound 20, Heptadecan-9-yl 8-((4-hydroxybutyl)(8-(nonyloxy)-8-oxooctyl)amino) octanoate], the “EE (%)” value in data set [1] was 96.72%. In data set [1] (Table 1C), the “% EE” value turned out to be 91.6%. For the same molecule, in data set [2], the “Fold increase in total body Luc Flux relative to MC3 at 6 h” value is recorded as 0.80. For the same molecule, in data set [2] (intravenous, 0.5 mpk), the “Fold increase in Luc expression relative to MC3, Intravenous (0.5 mpk dose)” value was 0.80. For the same molecule, in data set [2] (mice, i.v., 0.5 mg/kg), the “Total Flux 3 hours” value worked out at 1.71E+10, the “Total Flux 6 hours” value was 2.48E+10 and the “Total Flux 24 hours” value came out at 5.40E+08. Moreover, in data set [3], the “Novel lipid/MC3 expression ratio, s.c. Luc 0.5 mpk (AUC)” value was “(AUC: 4.02)”; the “Lipid/MC3 AUC ratio” value was found to be 4.02; the “AUC (luciferase expression)” value was 6.8926E+10 (p/s) * h; the “Novel lipid/MC3 ratio, s.c. Luc 6 hr.” value stood at 4.00.
For `CCCCCCCCCOC(=O)CCCCCCCN(CCO)CCCCCC(=O)OC(CCCCCCCC)CCCCCCCC` [Compound 27, Nonyl 8-((6-(heptadecan-9-yloxy)-6-oxohexyl)(2-hydroxyethyl)amino) octanoate], in data set [1], the “EE (%)” value was determined as 94.27%. The “Fold increase in total body Luc Flux relative to MC3 at 6 h” value in data set [2] is given as 0.31. Also, in data set [2] (mice, i.v., 0.5 mg/kg), the “Total Flux 3 hours” value is 1.64E+10, the “Total Flux 6 hours” value was 1.03E+10 and the “Total Flux 24 hours” value is on record as 1.94E+09. In addition, the “Novel lipid/MC3 expression ratio, 6 hr. time point, s.c. Luc 0.05 mpk” value in data set [3] came out at 14.45.
In the case of `CCCCCCCCCN(CCCO)CCCCCCCC(=O)OC(CCCCCCCC)CCCCCCCC` [Compound 7, Heptadecan-9-yl 8-((3-hydroxypropyl)(nonyl)amino)octanoate], the “EE (%)” value in data set [1] worked out at 86.10%. In data set [2] (mice, i.v., 0.5 mg/kg), the “Total Flux 3 hours” value worked out at 4.13E+10, the “Total Flux 6 hours” value was determined as 4.03E+10 and the “Total Flux 24 hours” value came out at 1.68E+09. For the same molecule, in data set [3], the “Novel lipid/MC3 expression ratio, 6 hr. time point, s.c. Luc 0.05 mpk” value stood at 2.40 and the “Novel lipid/MC3 expression ratio, 6 hr. time point, s.c. Luc 0.5 mpk” value worked out at 2.29.
Consider `CCCCCCCCCOC(=O)CCCCCCCN(CCCO)CCCCCCCC(=O)OC(CCCCCCCC)CCCCCCCC` [Compound 19, Heptadecan-9-yl 8-((3-hydroxypropyl)(8-(nonyloxy)-8-oxooctyl)amino) octanoate], for which the “EE (%)” value in data set [1] is 97.21%. Besides, the “% EE” value in data set [1] (Table 1E) is 93%. For the same molecule, the “Fold increase in total body Luc Flux relative to MC3 at 6 h” value in data set [2] came out at 0.96. In addition, in data set [2] (mice, i.v., 0.5 mg/kg), the “Total Flux 3 hours” value is listed as 3.38E+10, the “Total Flux 6 hours” value was found to be 3.56E+09 and the “Total Flux 24 hours” value amounted to 4.68E+08. For the same molecule, the “Novel lipid/MC3 expression ratio, 6 hr. time point, s.c. Luc 0.5 mpk” value in data set [3] stood at 2.13.
With `CCCCCCCCC(CCCCCCCC)OC(=O)CCCCCCCN(CCO)CCCCCC(=O)OC(CCCCCCCC)C1CC1` (centres unmarked) [Compound 128, Heptadecan-9-yl 8-((6-((1-cyclopropylnonyl)oxy)-6-oxohexyl)(2-hydroxyethyl)amino)octanoate], the “EE (%)” value in data set [1] is on record as 92.45%. In data set [1] (Table 1E), the “% EE” value is listed as 94%. Further, the “Fold increase in total body Luc Flux relative to MC3 at 6 h” value in data set [2] stood at 4.05. Also, the “Novel lipid/MC3 expression ratio … i.v.” value in data set [2] (intravenous) is 4.05. For the same molecule, in data set [2] (mice, i.v., 0.5 mg/kg), the “Total Flux 3 hours” value came out at 1.04E+11, the “Total Flux 6 hours” value is reported as 8.99E+10 and the “Total Flux 24 hours” value came to 1.00E+09. Moreover, in data set [2] (mice, i.v., 0.5 mg/kg, comparison in words), the “total flux at 3 hours” value was “highest”. Besides, the “Novel lipid/MC3 expression ratio, 6 hr. time point, s.c. Luc 0.5 mpk” value in data set [3] is 0.47.
On to `CCCC/C=C\CCC(CC/C=C\CCCC)OC(=O)CCCCCCCN(CCO)CCCCCC(=O)OCCCCCCCCCCC` [Compound 61, (5Z,12Z)-heptadeca-5,12-dien-9-yl 8-((2-hydroxyethyl)(6-oxo-6-(undecyloxy)hexyl)amino)octanoate], for which the “EE (%)” value in data set [1] is on record as 97.40%. The “% EE” value in data set [1] (Table 1E) turned out to be 96%. Moreover, in data set [2] (intravenous), the “Novel lipid/MC3 expression ratio … i.v.” value is reported as 2.31. Moreover, in data set [2] (mice, i.v., 0.5 mg/kg), the “Total Flux 3 hours” value is 6.54E+10, the “Total Flux 6 hours” value amounted to 6.20E+10 and the “Total Flux 24 hours” value amounted to 1.78E+09. Moreover, the “Novel lipid/MC3 expression ratio, 6 hr. time point, s.c. Luc 0.5 mpk” value in data set [3] amounted to 0.70.
